Measurements as given in patent EP3696177A1, “HETEROCYCLIC COMPOUNDS FOR THE CONTROL OF INVERTEBRATE PESTS” (BASF SE, priority 2019, dated 2020).
Where two headings read alike, the source gives them in different places.

Assays:
Format in all cases: in vivo
Aedes aegypti = assay: whole plant or invertebrate; conditions: 48 h, A. aegypti larvae, incubated 2 days, read-out: mortality in comparison with untreated controls (larval mortality)
Experimental: For evaluating control of yellow fever mosquito (Aedes aegypti) the test unit consisted of 96-well-microtiter plates containing 200µl of tap water per well and 5-15 freshly hatched A. aegypti larvae.
The active compounds were formulated using a solution containing 75% (v/v) water and 25% (v/v) DMSO. Different concentrations of formulated compounds or mixtures were sprayed onto the insect diet at 2.5µl, using a custom built micro atomizer, at two replications.
After application, microtiter plates were incubated at 28 + 1°C, 80 + 5 % RH for 2 days. Larval mortality was then visually assessed.

dichromothrips corbetti = assay: Orchid thrips floral-immersion test; conditions: 72 h, read-out: mortality in comparison with untreated controls
Experimental: Dichromothrips corbetti adults used for bioassay are obtained from a colony maintained continu-ously under laboratory conditions. For testing purposes, the test compound is diluted in a 1:1 mix-ture of acetone:water (vol:vol), plus Kinetic at a rate of 0.01% v/v.
Thrips potency of each compound is evaluated by using a floral-immersion technique. Each orchid petal is dipped into treatment solution and allowed to dry in Petri dishes. Treated petals are placed into individual re-sealable plastic along with about 20 adult thrips. All test arenas are held under dark condition and a temperature of about 28°C for duration of the assay. The percent mor-tality is recorded 72 hours after treatment.

Anthonomus grandis = assay: Boll weevil (Anthonomus grandis) insect diet microtiter plate test; conditions: 120 h, read-out: mortality in comparison with untreated controls (egg and larval mortality)
Experimental: For evaluating control of boll weevil (Anthonomus grandis) the test unit consisted of 96-well-microtiter plates containing an insect diet and 5-10 A. grandis eggs.
The compounds were formulated using a solution containing 75% v/v water and 25% v/v DMSO. Different concentrations of formulated compounds were sprayed onto the insect diet at 5 µl, using a custom built micro atomizer, at two replications.
After application, microtiter plates were incubated at about 25 + 1°C and about 75 + 5 % relative humidity for 5 days. Egg and larval mortality was then visually assessed.

Aphis craccivora = assay: Cowpea aphid (Aphis craccivora) spray test on potted cowpea plants; conditions: aphids of various stages, after 72 hours, read-out: mortality in comparison with untreated controls
Experimental: The active compound is dissolved at the desired concentration in a mixture of 1:1 (vol: vol) distilled water: acetone. Surfactant (Kinetic) is added at a rate of 0.01% (vol/vol). The test solution is prepared at the day of use.
Potted cowpea plants are colonized with approximately 30 - 50 aphids of various stages by man-ually transferring aphid-infested leaf clippings 24 hours before application. Plants are sprayed with the test solutions using a DeVilbiss® hand atomizer at 20- 30 psi (≈ 1.38 to 2.07 bar) after the pest population has been checked. Treated plants are maintained on light carts at about 25- 26°C. Estimate percent mortality is assessed after 72 hours.

Caenorhabditis elegans = Caenorhabditis elegans liquid diet microtiter plate test; conditions: 96 h, read-out: mortality in comparison with untreated controls (nematode motility (mortality))
Experimental: For evaluating control of Caenorhabditis elegans through contact or systemic means the test unit consisted of 96-well-microtiter plates containing a liquid diet.
The compounds or mixtures were formulated using a solution containing 75% water and 25% DMSO. Different concentrations of formulated compounds were sprayed into the microtiter plate wells at 5µl per well, using a custom built micro atomizer, at two replications. Mixed instar 60-100 C. elegans were transferred into the micro-titer plate wells. After application, the nematodes were incubated at 18 + 1°C, 70 + 5 % RH for 4 days. Nematode motility (mortality) was then visually assessed.

Heliothis virescens = assay: Tobacco budworm (Heliothis virescens) insect diet microtiter plate test; conditions: 120 h, read-out: mortality in comparison with untreated controls (egg and larval mortality)
Experimental: For evaluating control of tobacco budworm (Heliothis virescens) the test unit consisted of 96-well-microtiter plates containing an insect diet and 15-25 H. virescens eggs.
The compounds were formulated using a solution containing 75% v/v water and 25% v/v DMSO. Different concentrations of formulated compounds were sprayed onto the insect diet at 10 µl, us-ing a custom built micro atomizer, at two replications.
After application, microtiter plates were incubated at about 28 + 1°C and about 80 + 5 % relative humidity for 5 days. Egg and larval mortality was then visually assessed.

Megoura viciae = assay: Vetch aphid (Megoura viciae) broad bean leaf disk test; conditions: foliar, 120 h, read-out: mortality in comparison with untreated controls
Experimental: For evaluating control of vetch aphid (Megoura viciae) through contact or systemic means the test unit consisted of 24-well-microtiter plates containing broad bean leaf disks.
The compounds were formulated using a solution containing 75% v/v water and 25% v/v DMSO. Different concentrations of formulated compounds were sprayed onto the leaf disks at 2.5 µl, us-ing a custom built micro atomizer, at two replications.
After application, the leaf disks were air-dried and 5 - 8 adult aphids placed on the leaf disks in-side the microtiter plate wells. The aphids were then allowed to suck on the treated leaf disks and incubated at about 23 + 1°C and about 50 + 5 % relative humidity for 5 days. Aphid mortality and fecundity was then visually assessed.

Myzus persicae = assay: Green peach aphid (Myzus persicae) artificial diet/membrane systemic test; conditions: 72 h, read-out: mortality in comparison with untreated controls
Source text: For evaluating control of green peach aphid (Myzus persicae) through systemic means the test unit consisted of 96-well-microtiter plates containing liquid artificial diet under an artificial membrane.
The compounds were formulated using a solution containing 75% v/v water and 25% v/v DMSO. Different concentrations of formulated compounds were pipetted into the aphid diet, using a cus-tom built pipetter, at two replications.
After application, 5 - 8 adult aphids were placed on the artificial membrane inside the microtiter plate wells. The aphids were then allowed to suck on the treated aphid diet and incubated at about 23 + 1°C and about 50 + 5 % relative humidity for 3 days. Aphid mortality and fecundity was then visually assessed.

Nephotettix virescens = assay: Rice green leafhopper (Nephotettix virescens) spray test on rice seedlings; conditions: adults, after 72 hours, read-out: mortality in comparison with untreated controls
Experimental: Four to five-week old rice seedlings with cut upper leaf portion are cleaned and washed 24 hours before spraying. The active compounds are formulated in 1:1 acetone:water (vol:vol), and 0.01% vol/vol surfactant (Kinetic) is added. Potted rice seedlings are sprayed with 5-6 ml test solution, air dried, covered with Mylar cages and inoculated with 10 adults. Treated rice plants are kept at about 28-29°C and relative humidity of about 50-60%. Percent mortality is recorded after 72 hours.

Nezara viridula = assay: Green soldier stink bug (Nezara viridula) soybean pod spray test; conditions: 120 h, late 3rd instar N. viridula, after 5 days, read-out: mortality in comparison with untreated controls
Experimental: The active compound is dissolved at the desired concentration in a mixture of 1:1 (vol:vol) distilled water: aceteone. Surfactant (Kinetic) is added at a rate of 0.01% (vol/vol).The test solution is prepared at the day of use.
Soybean pods are placed in 90 x 50 mm glass Petri dishes lined with moistened filter paper and inoculated with ten late 3rd instar N. viridula. Using a hand atomizer, an approximately 2 ml solution is sprayed into each Petri dish. Treated set-up is kept at about 25-26°C and relative humidity of about 65-70%. Percent mortality is recorded after 5 days.

Plutella xylostella = assay: Diamond back moth (Plutella xylostella) cabbage leaf disc dip test; conditions: foliar, 72 h, read-out: mortality in comparison with untreated controls
Experimental: The active compound is dissolved at the desired concentration in a mixture of 1:1 (vol:vol) distilled water: acetone. Surfactant (Kinetic) is added at a rate of 0.01% (vol/vol). The test solution is pre-pared at the day of use.
Cabbage leaf discs (60mm in diameter) are dipped in test solution and air-dried. Treated leaves are placed in petri dishes lined with moistened filter paper and inoculated with ten 3rd instar larvae. Mortality is recorded 72 hours after treatment. Feeding damage is also recorded using a scale of 0-100%.

Tetranychus kanzawai = assay: Red spider mite (Tetranychus kanzawai) spray test on cowpea beans; conditions: 72 h, read-out: mortality in comparison with untreated controls
Experimental: The active compound is dissolved at the desired concentration in a mixture of 1:1 (vol:vol) distilled water: acetone. Add surfactant (Kinetic) is added at a rate of 0.01% (vol/vol). The test solution is prepared at the day of use.
Potted cowpea beans of 4-5 days of age are cleaned with tap water and sprayed with 1-2 ml of the test solution using air driven DeVilbiss® hand atomizer at 20- 30 psi (≈ 1,38 to 2,07 bar). The treated plants are allowed to air dry and afterwards inoculated with 30 or more mites by clipping a cassava leaf section from rearing population. Treated plants are placed inside a holding room at about 25-26°C and about 65-70% relative humidity. Estimate percent mortality is assessed 72 hours after treatment.

CN1C(=O)SC(NC(=O)c2ccc(C3=NOC(c4cc(Cl)cc(Cl)c4)(C(F)(F)F)C3)cc2Cl)C1=O (stereo not drawn) [Compound I-1-1]
> 75%: mortality at 2500 ppm (Aedes aegypti) | mortality at 300 ppm (dichromothrips corbetti) | mortality at 2500 ppm (Anthonomus grandis) | mortality at 300 ppm (Aphis craccivora) | mortality at 2500 ppm (Caenorhabditis elegans) | mortality at 2500 ppm (Heliothis virescens) | mortality at 2500 ppm (Megoura viciae) | mortality at 2500 ppm (Myzus persicae) | mortality at 300 ppm (Nephotettix virescens) | mortality at 300 ppm (Nezara viridula) | mortality at 300 ppm (Plutella xylostella) | mortality at 300 ppm (Tetranychus kanzawai; topical)

CN1COC(CNC(=O)c2ccc(C3=NOC(c4cc(Cl)c(F)c(Cl)c4)(C(F)(F)F)C3)cc2Cl)C1=O (stereo not drawn) [Compound I-3-5, 2-chloro-4-[5-(3,5-dichloro-4-fluoro-phenyl)-5-(trifluoromethyl)-4H-isoxazol-3-yl]-N-[(3-methyl-4-oxo-oxazolidin-5-yl)methyl]benzamide]
> 75%: mortality at 2500 ppm (Aedes aegypti) | mortality at 300 ppm (dichromothrips corbetti) | mortality at 2500 ppm (Anthonomus grandis) | mortality at 300 ppm (Aphis craccivora) | mortality at 2500 ppm (Caenorhabditis elegans) | mortality at 2500 ppm (Heliothis virescens) | mortality at 2500 ppm (Megoura viciae) | mortality at 2500 ppm (Myzus persicae) | mortality at 300 ppm (Nephotettix virescens) | mortality at 300 ppm (Nezara viridula) | mortality at 300 ppm (Plutella xylostella) | mortality at 300 ppm (Tetranychus kanzawai)

CN1COC(CNC(=O)c2ccc(C3=NOC(c4cc(Cl)c(F)c(Cl)c4)(C(F)(F)F)C3)c3c2CCC3)C1=O (stereo not drawn) [Compound I-3-1]
> 75%: mortality at 2500 ppm (Aedes aegypti) | mortality at 300 ppm (dichromothrips corbetti) | mortality at 2500 ppm (Anthonomus grandis) | mortality at 300 ppm (Aphis craccivora) | mortality at 2500 ppm (Caenorhabditis elegans) | mortality at 2500 ppm (Heliothis virescens) | mortality at 2500 ppm (Megoura viciae) | mortality at 2500 ppm (Myzus persicae) | mortality at 300 ppm (Nephotettix virescens) | mortality at 300 ppm (Nezara viridula) | mortality at 300 ppm (Plutella xylostella) | mortality at 300 ppm (Tetranychus kanzawai; topical)

CCN1C(=O)SC(NC(=O)c2ccc(C3=NOC(c4cc(Cl)c(F)c(Cl)c4)(C(F)(F)F)C3)cc2Cl)C1=O (stereo not drawn) [Compound I-1-7]
> 75%: mortality at 2500 ppm (Aedes aegypti) | mortality at 300 ppm (dichromothrips corbetti) | mortality at 2500 ppm (Anthonomus grandis) | mortality at 300 ppm (Aphis craccivora) | mortality at 2500 ppm (Caenorhabditis elegans) | mortality at 2500 ppm (Heliothis virescens) | mortality at 2500 ppm (Megoura viciae) | mortality at 2500 ppm (Myzus persicae) | mortality at 300 ppm (Nephotettix virescens) | mortality at 300 ppm (Nezara viridula) | mortality at 300 ppm (Plutella xylostella) | mortality at 300 ppm (Tetranychus kanzawai; topical)

CCN1C(=O)SC(NC(=O)c2ccc(C3=NOC(c4cc(Cl)cc(Cl)c4)(C(F)(F)F)C3)cc2Cl)C1=O (stereo not drawn) [Compound I-1-2]
> 75%: mortality at 2500 ppm (Aedes aegypti) | mortality at 300 ppm (dichromothrips corbetti) | mortality at 2500 ppm (Anthonomus grandis) | mortality at 300 ppm (Aphis craccivora) | mortality at 2500 ppm (Caenorhabditis elegans) | mortality at 2500 ppm (Heliothis virescens) | mortality at 2500 ppm (Megoura viciae) | mortality at 2500 ppm (Myzus persicae) | mortality at 300 ppm (Nephotettix virescens) | mortality at 300 ppm (Nezara viridula) | mortality at 300 ppm (Plutella xylostella) | mortality at 300 ppm (Tetranychus kanzawai; topical)

CCN1C(=O)SC(NC(=O)c2ccc(C3=NCC(c4cc(Cl)c(F)c(Cl)c4)(C(F)(F)F)C3)c3c2CCC3)C1=O (stereo not drawn) [Compound I-2-1]
> 75%: mortality at 2500 ppm (Aedes aegypti) | mortality at 300 ppm (dichromothrips corbetti) | mortality at 2500 ppm (Anthonomus grandis) | mortality at 300 ppm (Aphis craccivora) | mortality at 2500 ppm (Caenorhabditis elegans) | mortality at 2500 ppm (Heliothis virescens) | mortality at 2500 ppm (Megoura viciae) | mortality at 2500 ppm (Myzus persicae) | mortality at 300 ppm (Nephotettix virescens) | mortality at 300 ppm (Nezara viridula) | mortality at 300 ppm (Plutella xylostella) | mortality at 300 ppm (Tetranychus kanzawai; topical)
